Assay results published in patent US5543406A, “Inhibitors of 5-α-testosterone reductase” (priority 1994, dated 1996).

How the values were obtained:
Steroid 5-α-Reductase [1] = biological target: T1, Steroid 5-α-Reductase (Homo sapiens, UniProt P31213); assay: Steroid 5-α-reductase in vitro assay, human prostate microsomes (BPH patients); type: biochemical; conditions: human prostatic microsomes; 100 nM [3H]-testosterone, 1 mM NADPH, 60 minutes at 37° C.
T1 construct: microsomes derived from prostate tissue of benign prostatic hypertrophy (BPH) patients; from tissue; host or cells: prostate tissue of BPH patients, microsomes
T1 sequence (P31213 1-254): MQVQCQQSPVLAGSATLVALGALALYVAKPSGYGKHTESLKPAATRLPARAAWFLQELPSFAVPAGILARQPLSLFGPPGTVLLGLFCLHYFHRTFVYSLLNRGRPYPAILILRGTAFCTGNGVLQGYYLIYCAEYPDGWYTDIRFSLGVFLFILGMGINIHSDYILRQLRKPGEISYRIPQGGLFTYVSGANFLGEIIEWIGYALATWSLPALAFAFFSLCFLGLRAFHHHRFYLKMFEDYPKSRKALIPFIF

Steroid 5-α-Reductase [2] = assay: Steroid 5-α-reductase in vitro assay, rat prostate microsomes; type: biochemical; conditions: rat prostatic microsomes; 100 nM [3H]-testosterone, 1 mM NADPH, 60 minutes at 37° C.; read-out: ID50 Rat

Compound	IC50 (Steroid 5-α-Reductase [1])	IC50 (Steroid 5-α-Reductase [2])
CC1=C2NC[C@H]3[C@@H]4CC[C@H](C(=O)NC(C)(C)C)[C@@]4(C)CC[C@@H]3[C@@]2(C)CCC1=O [Compound 62, 17β-N-t-Butylcarbamoyl-6-azaandrost-4-methyl-4-en-3-one]	10 to 100 nM	10 to 100 nM
C[C@]12CC[C@H]3[C@@H](CNC4=CC(=O)CC[C@@]43C)[C@@H]1CC[C@@H]2C(=O)NC1CC2CCC1C2 (stereo partly drawn) [Compound 61, 17β-N-endo-2-Norbornylcarbamoyl-6-azaandrost-4-en-3-one]	10 to 100 nM	10 to 100 nM
CN1C[C@H]2[C@@H]3CC[C@H](C(=O)NC(C)(C)C)[C@@]3(C)CC[C@@H]2[C@@]2(C)C=CC(=O)C=C12 [Compound 29, 17β-N-t-Butylcarbamoyl-6-methyl-6-azaandrost-1,4-dien-3-one]	10 to 100 nM	100 to 1000 nM
CCN(CC)C(=O)[C@H]1CC[C@H]2[C@@H]3CNC4=CC(=O)C=C[C@]4(C)[C@H]3CC[C@]12C [Compound 6, 17β-N,N-Diethylcarbamoyl-6-azaandrost-1,4-dien-3-one]	10 to 100 nM	100 to 1000 nM
CCN(CC)C(=O)[C@H]1CC[C@H]2[C@@H]3CCNC4=CC(=O)CC[C@]4(C)[C@H]3CC[C@]12C [Compound 77, 17β-N,N-Diethylcarbamoyl-6-aza-B-homoandrost-4-en-3-one]	10 to 100 nM	100 to 1000 nM
CC1=C2NC[C@H]3[C@@H]4CC[C@H](C(=O)NC56CC7CC(CC(C7)C5)C6)[C@@]4(C)CC[C@@H]3[C@@]2(C)CCC1=O [Compound 56, 17β-N-1-Adamantylcarbamoyl-6-azaandrost-4-methyl-4-en-3-one]	10 to 100 nM	< 10 nM
CCN(CC)C(=O)[C@H]1CC[C@H]2[C@@H]3CN(C)C4=CC(=O)C=C[C@]4(C)[C@H]3CC[C@]12C [Compound 27, 17β-N,N-Diethylcarbamoyl-6-methyl-6-azaandrost-1,4-dien-3-one]	10 to 100 nM	100 to 1000 nM
CCN(CC)C(=O)/C=C/[C@H]1CC[C@H]2[C@@H]3CNC4=CC(=O)CC[C@]4(C)[C@H]3CC[C@]12C [Compound 76, 17β-1-(E)-Acrylyl(N,N-diethyl)amide-6-azaandrost-4-en-3-one]	10 to 100 nM	10 to 100 nM
C[C@]12CC[C@H]3[C@@H](CNC4=CC(=O)CC[C@@]43C)[C@@H]1CC[C@@H]2C(=O)N1CCOCC1 [Compound 23, 17β-N-Morpholinocarbamoyl-6-azaandrost-4-en-3-one]	10 to 100 nM	100 to 1000 nM
C[C@]12CC[C@H]3[C@@H](CNC4=CC(=O)CC[C@@]43C)[C@@H]1CC[C@@H]2C(=O)NCC1CC2CCC1C2 (stereo partly drawn) [Compound 60, 17β-N-exo-2-Norbornylmethylcarbamoyl-6-azaandrost-4-en-3-one]	10 to 100 nM	< 10 nM
CC(C)(C)NC(=O)[C@H]1CC[C@H]2[C@@H]3CNC4=CC(=O)C=C[C@]4(C)[C@H]3CC[C@]12C [Compound 28, 17β-N-t-Butylcarbamoyl-6-azaandrost-1,4-dien-3-one]	10 to 100 nM	100 to 1000 nM

Continued, values first:

IC50 (Steroid 5-α-Reductase [1])	IC50 (Steroid 5-α-Reductase [2])	Compound
< 10 nM	10 to 100 nM	CC(C)N(C(=O)[C@H]1CC[C@H]2[C@@H]3CN(C)C4=CC(=O)CC[C@]4(C)[C@H]3CC[C@]12C)C(C)C [Compound 18, 17β-N,N-Diisopropylcarbamoyl-6-methyl-6-azaandrost-4-en-3-one]
< 10 nM	10 to 100 nM	CC(C)CC(=O)[C@H]1CC[C@H]2[C@@H]3CNC4=CC(=O)CC[C@]4(C)[C@H]3CC[C@]12C [Compound 5, 17β-(1-Oxo-3-methylbutyl)-6-azaandrost-4-en-3-one]
< 10 nM	100 to 1000 nM	CCN(CC)C(=O)[C@H]1CC[C@H]2[C@@H]3CNC4=C(Br)C(=O)CC[C@]4(C)[C@H]3CC[C@]12C [Compound 9, 17β-N,N-Diethylcarbamoyl-6-azaandrost-4-bromo-4-en-3-one]
< 10 nM	< 10 nM	CN1C[C@H]2[C@@H]3CC[C@H](C(=O)NC45CC6CC(CC(C6)C4)C5)[C@@]3(C)CC[C@@H]2[C@@]2(C)CCC(=O)C=C12 [Compound 20, 17β-N-1-Adamantylcarbamoyl-6-methyl-6-azaandrost-4-en-3-one]
< 10 nM	< 10 nM	C[C@]12CC[C@H]3[C@@H](CNC4=CC(=O)CC[C@@]43C)[C@@H]1CC[C@@H]2C(=O)Nc1cccc2cc3ccccc3cc12 [Compound 67, 17β-N-1-Anthracylcarbamoyl-6-azaandrost-4-en-3-one]
< 10 nM	10 to 100 nM	CCN(CC)C(=O)[C@H]1CC[C@H]2[C@@H]3CN(C)C4=CC(=O)CC[C@]4(C)[C@H]3CC[C@]12C [Compound 2, 17β-N,N-Diethylcarbamoyl-6-methyl-6-azaandrost-4-en-3-one]
< 10 nM	< 10 nM	C[C@]12CC[C@H]3[C@@H](CNC4=CC(=O)CC[C@@]43C)[C@@H]1CC[C@@H]2C(=O)OC1C2CC3CC(C2)CC1C3 (stereo partly drawn) [Compound 73, 17β-Carbo-(2-adamantyl)-oxy-6-azaandrost-4-en-3-one]
< 10 nM	10 to 100 nM	CCN(CC)C(=O)[C@H]1CC[C@H]2[C@@H]3CNC4=CC(=O)CC[C@]4(C)[C@H]3CC[C@]12C [Compound 1, 17β-N,N-Diethylcarbamoyl-6-azaandrost-4-en-3-one]
< 10 nM	100 to 1000 nM	CC(C)N(C(=O)[C@H]1CC[C@H]2[C@@H]3CNC4=CC(=O)CC[C@]4(C)[C@H]3CC[C@]12C)C(C)C [Compound 17, 17β-N,N-Diisopropylcarbamoyl-6-azaandrost-4-en-3-one]
< 10 nM	10 to 100 nM	C[C@]12CC[C@H]3[C@@H](CNC4=CC(=O)CC[C@@]43C)[C@@H]1CC[C@@H]2C(=O)OC12CC3CC(CC(C3)C1)C2 [Compound 74, 17β-Carbo-(1-adamantyl)-oxy-6-azaandrost-4-en-3-one]
< 10 nM	10 to 100 nM	CN1C[C@H]2[C@@H]3CC[C@H](C(=O)NC45CC6CC(CC(C6)C4)C5)[C@@]3(C)CC[C@@H]2[C@@]2(C)C=CC(=O)C=C12 [Compound 31, 17β-N-1-Adamantylcarbamoyl-6-methyl-6-azaandrost-1,4-dien-3-one]
< 10 nM	10 to 100 nM	C[C@]12CC[C@H]3[C@@H](CNC4=CC(=O)CC[C@@]43C)[C@@H]1CC[C@@H]2C(=O)NC(c1ccccc1)c1ccccc1 [Compound 58, 17β-N-Diphenylmethylcarbamoyl-6-azaandrost-4-en-3-one]
< 10 nM	100 to 1000 nM	C[C@]12CC[C@H]3[C@@H](CNC4=CC(=O)CC[C@@]43C)[C@@H]1CC[C@@H]2C(=O)Sc1ccccn1 [Compound 4, 17β-(2-Pyridinylthiocarbonyl)-6-azaandrost-4-en-3-one]
< 10 nM	100 to 1000 nM	CON(C)C(=O)[C@H]1CC[C@H]2[C@@H]3CNC4=CC(=O)CC[C@]4(C)[C@H]3CC[C@]12C [Compound 21, 17β-N-Methoxy-N-methylcarbamoyl-6-azaandrost-4-en-3-one]
< 10 nM	10 to 100 nM	CC1=C2NC[C@H]3[C@@H]4CC[C@H](C(=O)CC(C)C)[C@@]4(C)CC[C@@H]3[C@@]2(C)CCC1=O [Compound 64, 17β-(1-Oxo-3-methylbutyl)-6-azaandrost-4-methyl-4-en-3-one]
